Laboratory results taken from patent US20110076272A1, “THERAPEUTIC METHODS AND COMPOSITIONS” (priority 2009, published 2011).

Assays:
[1] = system: MDA-MB-435 established primary tumors; experiment: MDA-MB-435 established primary tumor xenograft model; format: in vivo, mouse; conditions: independent study; AB0023 5 mg/kg twice per week, BAPN 100 mg/kg daily
MCF7 cells = experiment: Induction of EMT-like phenotype by LOXL2-containing conditioned media (rhodamine-phalloidin staining); format: cell-based; conditions: MDA-MB231 or Hs-578t conditioned media; BAPN up to 2 mM
Protocol: Cells were seeded at 80% confluency, in an 8-chambered slide, 24 hours prior to the day of staining. After 24 hours, media was aspirated and the chambers were washed with PBS. Cells were then fixed with 4% Parafomaldehyde (PFA) for 20 minutes at room temperature and then permeabilized with 0.5% Saponin (JT Baker, Phillipsburg, N.J.) for 5 minutes at room temperature. Cells were then stained for 15 minutes at room temperature with a 1:100 dilution of rhodamine phalloidin (Invitrogen, Carlsbad, Calif.). Slides were mounted with Vectashield (Vector Laboratories, Burlingame, Calif.).
MCF7 or SW620 cells were seeded at 50,000 cells per well of an 8-chambered culture slide in HGDMEM (high-glucose Dulbecco's modified Eagle's medium containing 4.5 g/l glucose)+10% FBS, 2 mM L-glutamine, 24 hours prior to being exposed to conditioned medium (CM). 500 uls of fresh conditioned medium from MDA MB 231 cells was added to the chambers containing MCF7 cells. The cells were incubated with the CM for 48-96 hours. Conditioned medium from MCF7 or SW620 cells was used as a negative control. After 48-96 hours incubation with CM, the cells were stained with rhodamine-phalloidin as described above.

[2] = system: purified recombinant human LOXL2; experiment: Amplex Red assay of LOXL2 enzymatic activity; format: biochemical
Protocol: A mouse anti-human LOXL2 antibody (AB0023) was obtained by immunization with full-length LOXL2 protein and purified by SEC-HPLC (Tosoh TSKGEL G3000SWXL 7.8×300). Analytical size exclusion chromatography was used to assess antibody stability and purity. Purified AB0023 was run on SDS-PAGE Coomassie (Invitrogen BT 4-12% Gels) reducing and non-reducing gels to assess purity. Potency was examined by ELISA to determine Kd, and effect on LOXL2 enzymatic activity was determined using an Amplex Red Assay (Molecular Probes/Invitrogen, Carlsbad, Calif.). Antibody concentration was measured by absorbance at 280 nm using an Extinction Coefficient Abs 0.1% of 1.4. Identity was assayed by isoelectric focusing (Invitrogen pH 3-10 IEF Gels). For safety analysis, endotoxin levels were measured at a sensitivity range of 0.01-1 EU/ml (Charles River EndoSafe PTS).

[3] = system: MDA-MB-435 established primary tumors; experiment: MDA-MB-435 established primary tumor xenograft model; format: in vivo, mouse; set-up: reduction in activated TAFs assessed by aSMA signal / reduction in VEGF signal versus vehicle-treated tumors / reduction in SDF-1/CXCL12 signal / reduction in LOXL2 signal: concentration or dose not given beside the values
Protocol: To provide growing tumor tissue stock for subsequent orthotopic implantation, five- to six-week-old nude mice (NCr nu/nu) were injected subcutaneously with 2×10^6 MDA-MB-435-GFP cells (Anticancer, Inc., San Diego, Calif.) on the right flank. For this purpose, cultures of MDA-MB-435-GFP cells were harvested and dissociated by trypsinization, washed three times with cold serum-containing medium, and then kept on ice until injection. Cells were injected into the subcutaneous space of the flank of the animal in a total volume of 0.1 ml, within 30 min of harvesting. The nude mice were sacrificed to harvest tumor tissue 4 to 6 weeks after tumor cell injection for surgical orthotopic implantation (SOI) of tumor fragments.
Tumor pieces (˜1 mm^3), extracted from subcutaneously-growing GFP-expressing breast tumors, were implanted by surgical orthotopic implantation (SOI) on the breast of female nude mice (NCr nu/nu). Treatments with AB0023 (anti-LOXL2 monoclonal antibody), M64 (anti-LOX monoclonal antibody) and vehicle (all via intraperitoneal injection) and with Taxotere (by intravenous injection) were initiated when the average primary tumor volume reached 75 mm^3. Mice were administered the antibodies at a dose of 30 mg/kg twice a week for 28 days and Taxotere, at 10 mg/kg, was administered once a week for 3 weeks.
Body weight and tumor size were recorded weekly. At the conclusion of the study, mice were sacrificed by cervical dislocation after being anesthetized with carbon dioxide. Primary breast tumors were imaged, harvested, cut in half symmetrically and snap-frozen for histological and immunohistochemical analyses.
The solutions used for the immunohistochemistry (IHC) protocols were obtained from Biocare Medical (Concord, Calif.) unless otherwise stated. All procedures were performed at room temperature. Slides were fixed with 4% PFA for 10 minutes and were subsequently treated with Peroxidazed-1 (Biocare Medical, Concord, Calif.) for 5 minutes. Then, the slides were background blocked with SNIPER (Biocare Medical, Concord, Calif.) for 10 minutes. Primary antibody (2-5 ug/ml final concentration) was diluted in Da Vinci Green Universal Diluent and applied to slides for 30 minutes. Slides were then rinsed in PBS-Tween-20. The Mach2 polymer kit was used for antigen detection by adding rabbit probe for 30 minutes. DAB chromagen was added to the slides for 3-5 minutes, then slides were rinsed once with deionized water. The slides were then counter-stained with hematoxylin, followed by dehydration with graded alcohol. The slides were mounted with entellan mounting medium (Electron Microscopy Sciences, Hatfield, Pa.).

[4] = target: T1, lysyl oxidase-like 3 (LOXL3) (UniProt P58215 26-753, limits assumed); experiment: Western blot probed with AB0023 [Cont. 2) panel m]
T1 construct: Member of 'other lysyl oxidase-type enzymes'; also called LOR-2
T1 sequence (looked up): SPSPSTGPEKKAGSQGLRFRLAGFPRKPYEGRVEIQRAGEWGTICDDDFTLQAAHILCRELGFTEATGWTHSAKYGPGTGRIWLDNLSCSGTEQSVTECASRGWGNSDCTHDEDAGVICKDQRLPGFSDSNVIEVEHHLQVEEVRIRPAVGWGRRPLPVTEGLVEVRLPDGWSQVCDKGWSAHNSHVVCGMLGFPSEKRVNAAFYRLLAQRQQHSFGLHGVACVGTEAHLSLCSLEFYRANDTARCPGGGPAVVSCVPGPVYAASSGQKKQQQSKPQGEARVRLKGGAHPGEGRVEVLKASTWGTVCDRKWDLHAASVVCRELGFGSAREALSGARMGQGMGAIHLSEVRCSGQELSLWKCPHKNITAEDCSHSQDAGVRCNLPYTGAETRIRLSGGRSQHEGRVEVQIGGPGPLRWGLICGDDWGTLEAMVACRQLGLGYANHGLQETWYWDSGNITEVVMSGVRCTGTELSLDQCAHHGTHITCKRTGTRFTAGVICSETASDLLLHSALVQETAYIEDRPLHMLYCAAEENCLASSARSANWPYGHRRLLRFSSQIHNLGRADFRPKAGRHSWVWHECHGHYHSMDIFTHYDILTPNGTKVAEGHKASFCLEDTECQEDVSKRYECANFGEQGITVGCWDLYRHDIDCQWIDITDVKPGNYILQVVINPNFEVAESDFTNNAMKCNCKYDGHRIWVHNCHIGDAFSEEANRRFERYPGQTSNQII

[5] = target: T2, lysyl oxidase-like 4 (LOXL4) (UniProt Q96JB6 25-756, limits assumed); experiment: Western blot probed with AB0023 [Cont. 2) panel m]
T2 construct: Member of 'other lysyl oxidase-type enzymes'
T2 sequence (looked up): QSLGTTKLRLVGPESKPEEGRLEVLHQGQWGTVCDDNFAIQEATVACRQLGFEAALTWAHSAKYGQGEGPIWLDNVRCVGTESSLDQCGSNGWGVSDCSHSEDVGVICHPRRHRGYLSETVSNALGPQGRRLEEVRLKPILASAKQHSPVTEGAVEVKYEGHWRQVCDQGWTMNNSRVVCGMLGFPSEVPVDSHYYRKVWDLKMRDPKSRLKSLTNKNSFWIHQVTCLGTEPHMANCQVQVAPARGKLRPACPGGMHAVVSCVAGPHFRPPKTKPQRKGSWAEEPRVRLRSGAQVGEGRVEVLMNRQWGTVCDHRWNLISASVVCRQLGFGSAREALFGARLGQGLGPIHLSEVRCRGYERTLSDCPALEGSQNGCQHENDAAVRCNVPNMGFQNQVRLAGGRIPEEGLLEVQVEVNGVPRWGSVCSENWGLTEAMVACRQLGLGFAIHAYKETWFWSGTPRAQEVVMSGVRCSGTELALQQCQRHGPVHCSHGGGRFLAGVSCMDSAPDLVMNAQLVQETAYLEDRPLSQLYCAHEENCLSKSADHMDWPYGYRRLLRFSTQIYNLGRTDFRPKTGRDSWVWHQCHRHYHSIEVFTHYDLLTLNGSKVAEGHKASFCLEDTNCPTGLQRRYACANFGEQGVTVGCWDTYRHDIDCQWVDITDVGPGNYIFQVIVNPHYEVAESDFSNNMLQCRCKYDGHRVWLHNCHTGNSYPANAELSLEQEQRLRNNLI

lysyl oxidase (LOX) = target: T3, lysyl oxidase (LOX) (UniProt P28300 169-417, limits assumed); experiment: Western blot probed with AB0023 [Cont. 2) panel m]
T3 construct: Member of 'other lysyl oxidase-type enzymes'
T3 sequence (looked up): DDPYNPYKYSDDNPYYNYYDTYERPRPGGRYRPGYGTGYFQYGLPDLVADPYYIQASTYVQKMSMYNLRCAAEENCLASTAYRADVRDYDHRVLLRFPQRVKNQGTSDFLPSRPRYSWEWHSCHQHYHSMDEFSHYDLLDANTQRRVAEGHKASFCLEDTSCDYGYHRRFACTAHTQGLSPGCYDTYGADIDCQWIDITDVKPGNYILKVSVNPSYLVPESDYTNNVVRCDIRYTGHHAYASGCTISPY

[6] = target: T4, human lysyl oxidase-like 2 (LOXL2) (human, UniProt Q9Y4K0 26-774); experiment: cell-based or functional assay
T4 sequence (looked up): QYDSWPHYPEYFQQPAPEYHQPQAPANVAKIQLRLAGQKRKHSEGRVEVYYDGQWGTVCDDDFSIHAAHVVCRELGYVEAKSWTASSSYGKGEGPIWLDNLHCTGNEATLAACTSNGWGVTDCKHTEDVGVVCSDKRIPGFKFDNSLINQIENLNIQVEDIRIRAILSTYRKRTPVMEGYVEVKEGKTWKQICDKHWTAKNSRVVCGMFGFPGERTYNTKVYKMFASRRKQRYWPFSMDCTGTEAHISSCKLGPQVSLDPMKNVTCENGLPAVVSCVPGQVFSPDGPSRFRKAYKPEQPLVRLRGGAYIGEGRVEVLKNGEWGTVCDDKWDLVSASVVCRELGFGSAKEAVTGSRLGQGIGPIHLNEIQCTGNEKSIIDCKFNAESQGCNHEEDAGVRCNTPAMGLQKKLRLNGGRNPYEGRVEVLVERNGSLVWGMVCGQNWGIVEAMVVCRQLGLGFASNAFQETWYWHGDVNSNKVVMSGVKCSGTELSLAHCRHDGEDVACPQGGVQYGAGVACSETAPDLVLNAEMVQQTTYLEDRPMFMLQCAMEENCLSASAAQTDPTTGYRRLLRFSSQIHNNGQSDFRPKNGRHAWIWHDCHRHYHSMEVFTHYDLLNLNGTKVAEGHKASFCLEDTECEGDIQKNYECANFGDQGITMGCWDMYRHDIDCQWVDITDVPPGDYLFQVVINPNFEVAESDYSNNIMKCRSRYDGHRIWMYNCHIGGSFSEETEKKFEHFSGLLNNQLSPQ

## N#CCCN [BAPN, beta-aminoproprionitrile, reference compound]
[1]
  reduction in tumor vasculature, CD31 signal: no reduction
  reduction in tumor volume after 46 days: 19%
MCF7 cells
  remodeling of the actin cytoskeleton induced by LOXL2-containing conditioned media: not inhibited
[2]
  mode of inhibition of LOXL2: competitive inhibitor
[2]; in vitro
  inhibition of LOXL2 enzymatic activity: inhibited
[2]; in vitro, FIG. 8 panel D
  IC50 for inhibition of LOXL2 (in words): low nanomolar

## CC(=O)O[C@@]12CO[C@@H]1C[C@H](O)[C@@]1(C)C(=O)[C@H](O)C3=C(C)[C@@H](OC(=O)[C@H](O)[C@@H](NC(=O)OC(C)(C)C)c4ccccc4)C[C@@](O)([C@@H](OC(=O)c4ccccc4)[C@H]21)C3(C)C [Taxotere, reference compound]
[3]; mouse, in vivo
  levels of Beclin-1 (autophagy) in tumor cells: increased
[3]; tumors harvested at day 39
  reduction in Sirius red staining (crosslinked collagen, desmoplasia): No significant differences
  reduction in activated TAFs assessed by aSMA signal: No significant differences
  reduction in tumor vasculature, CD31 signal: 43%

B1: anti-LOXL2 monoclonal antibody AB0023 (antibody, V domains shown)
VH: QVQLQQSGAELVRPGTSVKVSCKASGYAFTYYLIEWVKQRPGQGLEWIGVINPGSGGTNYNEKFKGKATLTADKSSSTAYMQLSSLTSDDSAVYFCARNWMNFDYWGQGTTLTVSS
VL: DIVMTQAAPSVSVTPGESVSISCRSSKSLLHSNGNTYLYWFLQRPGQSPQFLIYRMSNLASGVPDRFSGSGSGTAFTLRISRVEAEDVGVYYCMQHLEYPYTFGGGTKLEIK
notes: Mouse monoclonal antibody from a hybridoma, raised against full-length LOXL2 and purified from ascites; also called mouse anti-human LOXL2 antibody; LOXL2-specific monoclonal antibody
[4]
  binding result: no binding
[5]
  binding result: no binding
Lysyl oxidase (LOX)
  binding result: no binding
[6]
  IC50, HUVEC tube formation assay, FIG. 4 Panel I (mean total tubule length): 33.2 nM
  apparent IC50 for inhibition of purified LOXL2 enzymatic activity: ~30 nM
